Test results reported in article PMC10229078, “In vitro effects of lapachol and β-lapachone against Leishmania amazonensis” (Brazilian Journal of Medical and Biological Research, 2023).
Converted amounts (≈) assume the structure as drawn.

What was measured:
[1] = test system: Leishmania amazonensis promastigotes; assay: Viability assay of promastigotes, XTT colorimetric method (LD50); format: cell-based, Leishmania amazonensis (MHOM/BR/1977/LTB0016); settings: 25°C
Procedure: The viability of L. amazonensis (MHOM/BR/1977/LTB0016) promastigotes was evaluated using the XTT colorimetric method, which consists in the XTT salt degradation by the mitochondria forming formazan crystals. Promastigote forms (2×10^7 parasites/mL) from a culture in logarithmic growth phase were incubated with lapachol and β-lapachone diluted in 199 culture medium. The drugs were diluted in series, in a ratio of two, starting from 1/2, on a 96-well cell culture plate (TPP™ test plate, Switzerland). The compounds were tested at concentrations from 204.4 to 0.40 µg/mL (lapachol) and 157.5 to 0.31 µg/mL (β-lapachone). After 24, 48, and 72 h of incubation at 25°C, 100 μL of the XTT solution (500 μg/mL) activated with PMS (50 μg/mL) were added to each well and incubated for 4 h at 37°C. The result was measured by absorbance, determined by spectrophotometry (450/650 nm filter, VersaMax™ ELISA microplate reader, USA). The lethal dose (LD50) was defined as the concentrations of the compounds that reduced survival of L. amazonensis by 50% compared to untreated parasites in culture medium. AmB (1.96 to 0.25 µg/mL) was used as positive control of leishmanicidal activity. The therapeutic selectivity index (TSI CC50/LD50) was calculated by the ratio of toxicity to macrophage vs toxicity to parasites after 24 h incubation ([28]). All assays were performed in triplicate and repeated at least three times.

[2] = test system: Leishmania amazonensis promastigotes; assay: Promastigote growth inhibition, counting in Neubauer chamber (IC50); format: cell-based, Leishmania amazonensis (MHOM/BR/1977/LTB0016); settings: Leishmania amazonensis; 24 h incubation, growth inhibition by counting
Procedure: Leishmania growth was evaluated after 24 h of incubation at 25°C with the compounds under the same conditions as previously mentioned. Then, 10 µL of the content of each well was added to a 990 µL (1/100) of formalin solution (2%), and the parasites were counted in a Neubauer chamber. The inhibitory concentration (IC50) of promastigotes was calculated by comparing with untreated promastigotes in culture medium. The results were evaluated by linear regression of the inhibition percentage. The selectivity index (SI CC50/IC50) was calculated by the ratio of toxicity concentration to macrophage vs inhibitory concentration to the parasite growth after 24 h incubation ([27]). All assays were performed in triplicate and repeated at least three times.

[3] = test system: Leishmania amazonensis promastigotes; assay: Change in cell volume and morphology of the parasites (flow cytometry FSC-H/SSC-H, SEM); format: cell-based; settings: 24 h; lapachol 76.62 µg/mL, β-lapachone 1.63 µg/mL, H2O2 2 mM; untreated 93.14%
Procedure: Promastigote forms (2×10^7 cells) of L. amazonensis untreated (negative control) or treated with 76.62 µg/mL of lapachol and 1.63 µg/mL of β-lapachone were analyzed to observe changes in cell morphology of the parasites induced by the treatment after 24 h of incubation. […] Subsequently, the parasites were analyzed using a BD FacsCalibur flow cytometer (Becton Dickinson, USA) and CellQuest Pro software (Joseph Trotter, Scripps Research Institute, USA), and 10,000 events were acquired. Dot plots were generated, the forward scatter (FSC-H) parameter was analyzed as presenting a correlation with the cell volume.
Scanning electron microscopy (SEM) also was performed to analyze morphological changes in cell surface topography. After 24 h of treatment, the parasites were centrifuged at 576 g for 10 min, and the samples were fixed in 2.5% glutaraldehyde and 0.1 M sodium cacodylate buffer. Poly-L-lysine was used to promote the adhesion of fixed parasites on coverslips. Promastigotes were dehydrated with increasing ethanol concentrations (30-100%), submitted to critical point drying, and metalized with gold for visualization on a Shimadzu 55-550 (Japan) microscope.

[4] = test system: Leishmania amazonensis promastigotes; assay: Mitochondria membrane potential (ΔΨm), Rh123 flow cytometry; format: cell-based; settings: for Reduction in ΔΨm: lapachol 76.62 µg/mL, β-lapachone 1.63 µg/mL, H2O2 2 mM; for Variation Index (VI) of Rh123 fluorescence, (MT−MC)/MC: lapachol 76.62 μg/mL, β-lapachone 1.63 μg/mL, PC 2 mM
Procedure: The ΔΨm was determined using on BD FacsCalibur™ flow cytometer and CellQuest Pro software, with a total of 10.000 events acquired, using a mitochondrial-specific green-fluorescent dye Rh123 ([31]). Briefly, L. amazonensis (2×10^7 parasites/mL) were incubated with lapachol (76.62 µg/mL) and β-lapachone (1.63 µg/mL) for 1, 4, and 24 h at 25°C. After washed with PBS, the parasites were incubated with 5 μg/mL Rh123 for 15 min. After the incubation time, the cells were washed and suspended in PBS for additional incubation of 30 min for analysis. The percentage of fluorescence of Rh123, was determined by the (MT/MC)*100 equation, with MT representing the median fluorescence of the treated parasites and the MC the median fluorescence of negative controls. Alteration in ΔΨm was quantified using an index of variation (IV) obtained by the equation IV = (MT - MC)/MC, where negative IV values correspond to depolarization of the mitochondrial membrane. H2O2 (2 mM) was used as a positive control ([32]).

Compound	Promastigotes LD50 ([1]; 24 h incubation)	Promastigotes LD50 ([1]; 48 h incubation)	Promastigotes LD50 ([1]; 72 h incubation)	IC50 [2]	Percentage population of the lower left quadrant gate (FSC-H/SSC-H, cell volume) [3]	Reduction in ΔΨm ([4]; 1 h)	Variation Index (VI) of Rh123 fluorescence, (MT−MC)/MC ([4]; 1 h)	Variation Index (VI) of Rh123 fluorescence, (MT−MC)/MC ([4]; 4 h)	Reduction in ΔΨm ([4]; 24 h)	Variation Index (VI) of Rh123 fluorescence, (MT−MC)/MC ([4]; 24 h)
C[C@@H]1[C@H](O)[C@@H](C)/C=C/C=C/C=C/C=C/C=C/C=C/C=C/[C@H](O[C@@H]2O[C@H](C)[C@@H](O)[C@H](N)[C@@H]2O)C[C@@H]2O[C@](O)(C[C@@H](O)C[C@@H](O)[C@H](O)CC[C@@H](O)C[C@@H](O)CC(=O)O[C@H]1C)C[C@H](O)[C@H]2C(=O)O [AmB, Amphotericin B, reference compound]	0.97 ± 0.09 µg/mL	1.65 ± 0.02 µg/mL	0.80 ± 0.03 µg/mL	0.632 ± 0.12 µg/mL (≈ 0.684 µM)	–	–	–	–	–	–
OO [H2O2, reference compound]	–	–	–	–	49.51%	97%	-0.97	-0.98	98%	-0.98
